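Cultured in 96-well plates, cells were exposed to test compound for 48 hours across five concentrations. Definition used: TGI = concentration required for complete inhibition of growth.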
Tests used:
Test in all cases: growth of human tumour cells (NCI), 48 h
MDA-MB-435 = tested on: MDA-MB-435
A498 renal = tested on: A498 renal
K-562 leukemia = tested on: K-562 leukemia
HCT-116 colon = tested on: HCT-116 colon
HT29 colon = tested on: HT29 colon
NCI-H460 lung = tested on: NCI-H460 lung
MDA-N = tested on: MDA-N
ACHN renal = tested on: ACHN renal
CAKI-1 renal = tested on: CAKI-1 renal
NCI-H23 lung = tested on: NCI-H23 lung
SF-268 CNS = tested on: SF-268 CNS
RXF 393 renal = tested on: RXF 393 renal
CCRF-CEM leukemia = tested on: CCRF-CEM leukemia
T-47D breast = tested on: T-47D breast
OVCAR-5 ovarian = tested on: OVCAR-5 ovarian
RPMI-8226 leukemia = tested on: RPMI-8226 leukemia
PC-3 prostate = tested on: PC-3 prostate
SR leukemia = tested on: SR leukemia
COLO 205 colon = tested on: COLO 205 colon
SN12C renal = tested on: SN12C renal
SNB-75 CNS = tested on: SNB-75 CNS
SNB-19 CNS = tested on: SNB-19 CNS
LOX IMVI melanoma = tested on: LOX IMVI melanoma
TK-10 renal = tested on: TK-10 renal
MDA-MB-231 breast = tested on: MDA-MB-231 breast
NCI/ADR-RES ovarian = tested on: NCI/ADR-RES ovarian
M14 melanoma = tested on: M14 melanoma
UO-31 renal = tested on: UO-31 renal
MALME-3M melanoma = tested on: MALME-3M melanoma
U251 CNS = tested on: U251 CNS
SK-OV-3 ovarian = tested on: SK-OV-3 ovarian
HCT-15 colon = tested on: HCT-15 colon
HOP-62 NSCLC = tested on: HOP-62 NSCLC
UACC-257 melanoma = tested on: UACC-257 melanoma
OVCAR-3 ovarian = tested on: OVCAR-3 ovarian
DU-145 prostate = tested on: DU-145 prostate
MCF7 breast = tested on: MCF7 breast
SK-MEL-2 melanoma = tested on: SK-MEL-2 melanoma
SF-539 CNS = tested on: SF-539 CNS
HS 578T breast = tested on: HS 578T breast
MOLT-4 leukemia = tested on: MOLT-4 leukemia
OVCAR-8 ovarian = tested on: OVCAR-8 ovarian
EKVX NSCLC = tested on: EKVX NSCLC
SK-MEL-5 melanoma = tested on: SK-MEL-5 melanoma
786-0 renal = tested on: 786-0 renal
BT-549 breast = tested on: BT-549 breast
IGROV1 ovarian = tested on: IGROV1 ovarian
SF-295 CNS = tested on: SF-295 CNS
NCI-H226 lung = tested on: NCI-H226 lung
KM12 colon = tested on: KM12 colon
HL-60(TB) leukemia = tested on: HL-60(TB) leukemia
UACC-62 melanoma = tested on: UACC-62 melanoma
OVCAR-4 ovarian = tested on: OVCAR-4 ovarian
HCC-2998 colon = tested on: HCC-2998 colon
A549 NSCLC = tested on: A549 NSCLC
NCI-H522 lung = tested on: NCI-H522 lung
SK-MEL-28 melanoma = tested on: SK-MEL-28 melanoma
SW-620 colon = tested on: SW-620 colon
HOP-92 NSCLC = tested on: HOP-92 NSCLC

For Oc1ccc2c(c1)-c1c(c3ccccc3n1CCN1CCOCC1)CC2, the TGI (MDA-MB-435) was > 100 µM, the TGI (A498 renal) was > 100 µM and the TGI (K-562 leukemia) was > 100 µM. For the same compound, the TGI (HCT-116 colon) was > 100 µM, the TGI (HT29 colon) was > 100 µM and the TGI (NCI-H460 lung) was > 100 µM. The TGI (MDA-N) was > 100 µM, the TGI (ACHN renal) was 53.3 µM and the TGI (CAKI-1 renal) was > 100 µM. For the same compound, the TGI (NCI-H23 lung) was 69.1 µM, the TGI (SF-268 CNS) was > 100 µM and the TGI (RXF 393 renal) was > 100 µM. For the same compound, the TGI (CCRF-CEM leukemia) was > 100 µM, the TGI (T-47D breast) was > 100 µM and the TGI (OVCAR-5 ovarian) was 61.3 µM. The TGI (RPMI-8226 leukemia) was > 100 µM, the TGI (PC-3 prostate) was > 100 µM and the TGI (SR leukemia) was > 100 µM. For the same compound, the TGI (COLO 205 colon) was > 100 µM, the TGI (SN12C renal) was > 100 µM and the TGI (SNB-75 CNS) was 68.5 µM. The TGI (SNB-19 CNS) was > 100 µM, the TGI (LOX IMVI melanoma) was > 100 µM and the TGI (TK-10 renal) was 94.4 µM. The TGI (MDA-MB-231 breast) was > 100 µM, the TGI (NCI/ADR-RES ovarian) was 95.3 µM and the TGI (M14 melanoma) was 88 µM. The TGI (UO-31 renal) was > 100 µM, the TGI (MALME-3M melanoma) was > 100 µM and the TGI (U251 CNS) was > 100 µM. For the same compound, the TGI (SK-OV-3 ovarian) was 85.2 µM, the TGI (HCT-15 colon) was > 100 µM and the TGI (HOP-62 NSCLC) was > 100 µM. For the same compound, the TGI (UACC-257 melanoma) was 84.6 µM, the TGI (OVCAR-3 ovarian) was > 100 µM and the TGI (DU-145 prostate) was > 100 µM. For the same compound, the TGI (MCF7 breast) was > 100 µM, the TGI (SK-MEL-2 melanoma) was 69.4 µM and the TGI (SF-539 CNS) was > 100 µM. For the same compound, the TGI (HS 578T breast) was > 100 µM, the TGI (MOLT-4 leukemia) was > 100 µM and the TGI (OVCAR-8 ovarian) was > 100 µM. For the same compound, the TGI (EKVX NSCLC) was > 100 µM, the TGI (SK-MEL-5 melanoma) was > 100 µM and the TGI (786-0 renal) was > 100 µM. For the same compound, the TGI (BT-549 breast) was > 100 µM, the TGI (IGROV1 ovarian) was > 100 µM and the TGI (SF-295 CNS) was > 100 µM. For the same compound, the TGI (NCI-H226 lung) was 81.2 µM, the TGI (KM12 colon) was 51.3 µM and the TGI (HL-60(TB) leukemia) was > 100 µM. The TGI (UACC-62 melanoma) was 81 µM.
N[C@H]1CCCC[C@@H]1N1C(=O)c2ccccc2C1(O)c1ccc(Cl)cc1 (stereo partly specified) gave a TGI (MDA-MB-435) of 21.1 µM, a TGI (A498 renal) of 28.1 µM and a TGI (K-562 leukemia) of 13.2 µM. The TGI (HCT-116 colon) was 21.9 µM, the TGI (HT29 colon) was 15.6 µM and the TGI (NCI-H460 lung) was 25.2 µM. For the same compound, the TGI (MDA-N) was 25 µM, the TGI (OVCAR-4 ovarian) was 24.6 µM and the TGI (ACHN renal) was 27 µM. For the same compound, the TGI (CAKI-1 renal) was 20.7 µM, the TGI (HCC-2998 colon) was 3.5 µM and the TGI (NCI-H23 lung) was 28.6 µM. For the same compound, the TGI (SF-268 CNS) was 27.5 µM, the TGI (RXF 393 renal) was 20.4 µM and the TGI (CCRF-CEM leukemia) was 16.7 µM. The TGI (T-47D breast) was 14.7 µM, the TGI (OVCAR-5 ovarian) was 28.6 µM and the TGI (RPMI-8226 leukemia) was 13.6 µM. It also gave a TGI (PC-3 prostate) of 24.4 µM, a TGI (SR leukemia) of 29.9 µM and a TGI (COLO 205 colon) of 12.6 µM. The TGI (SN12C renal) was 27 µM, the TGI (SNB-75 CNS) was 7.98 µM and the TGI (SNB-19 CNS) was 27.6 µM. The TGI (LOX IMVI melanoma) was 22.5 µM, the TGI (A549 NSCLC) was 25.2 µM and the TGI (TK-10 renal) was 26 µM. For the same compound, the TGI (MDA-MB-231 breast) was 27.5 µM, the TGI (NCI/ADR-RES ovarian) was 30.8 µM and the TGI (NCI-H522 lung) was 27.8 µM. For the same compound, the TGI (M14 melanoma) was 23.6 µM, the TGI (UO-31 renal) was 24.2 µM and the TGI (MALME-3M melanoma) was 27.8 µM. It also gave a TGI (U251 CNS) of 26.6 µM, a TGI (SK-OV-3 ovarian) of 29.8 µM and a TGI (HCT-15 colon) of 26.7 µM. The TGI (HOP-62 NSCLC) was 29.6 µM, the TGI (UACC-257 melanoma) was 11.7 µM and the TGI (OVCAR-3 ovarian) was 21.5 µM. For the same compound, the TGI (DU-145 prostate) was 25.9 µM, the TGI (MCF7 breast) was 27.5 µM and the TGI (SK-MEL-2 melanoma) was 30.6 µM. For the same compound, the TGI (SF-539 CNS) was 25 µM, the TGI (SK-MEL-28 melanoma) was 10.4 µM and the TGI (HS 578T breast) was 54.4 µM. For the same compound, the TGI (MOLT-4 leukemia) was 19.2 µM, the TGI (OVCAR-8 ovarian) was 32.4 µM and the TGI (EKVX NSCLC) was 30.1 µM. It also gave a TGI (SK-MEL-5 melanoma) of 22.5 µM, a TGI (786-0 renal) of 26.4 µM and a TGI (SW-620 colon) of 24.2 µM. It also gave a TGI (BT-549 breast) of 28.8 µM, a TGI (HOP-92 NSCLC) of 24.9 µM and a TGI (IGROV1 ovarian) of 25.7 µM. It also gave a TGI (SF-295 CNS) of 30.9 µM, a TGI (NCI-H226 lung) of 31.3 µM and a TGI (KM12 colon) of 9.75 µM. For the same compound, the TGI (HL-60(TB) leukemia) was 20 µM and the TGI (UACC-62 melanoma) was 25.9 µM.

Reference: PubChem BioAssay (NCI)
